Measured values from patent publication US9351515B2, “Nutritional composition and methods of making and using same” (Georgia-Pacific Panel Products LLC, priority 2009, dated 2016).

Tested on: green fluorescent protein labeled Salmonella enterica serovar Typhimurium
Test: Adherence of Salmonella to porcine derived IPEC J2 jejunal cells (Example 4)
Assay type: cell-based
Conditions: bacteria pre-exposed to 0.05M methyl α-D mannoside
Procedure: Porcine derived IPEC J2 jejunal cells were seeded onto 8-well chamber slides. […] The cells were exposed to suspensions containing a green fluorescent protein labeled Salmonella enterica serovar Typhimurium previously exposed for 10 minutes to an equal volume of water or to a suspension containing 17.5 mg Nutritional Composition/ml or 0.05M methyl α-D_mannoside. After the addition of treated or untreated bacteria, the chamber slides were incubated to allow attachment to occur and the wells of each slide were washed. Slides were examined by phase contrast microscopy at 1,000× magnification, and numbers of attached cells of the green fluorescent protein labeled Salmonella enterica serovar Typhimurium were counted on 100 randomly selected IPEC J2 cells.

SMILES: CO[C@H]1O[C@H](CO)[C@@H](O)[C@H](O)[C@@H]1O [methyl α-D mannoside, methyl α-D-mannoside]
- Salmonella binding to the IPEC J2 cells: no effect
